Results: publication PMC12467903, “A Sensitive Electrochemical Cholinesterase-Inhibiting Biosensor for Organophosphorus Pesticides Based on Ti3C2TX MXene Quantum Dots” (Biosensors, 2025)

Columns and labels:
Format in all cases: biochemical
[1] = target: T1, acetylcholinesterase (AChE) (Electrophorus electricus, UniProt O42275); experiment: DPV peak current suppression with immobilized AChE ([…] at […])
[2] = target: T1, acetylcholinesterase (AChE); experiment: electrochemical detection of thiocholine from hydrolysis by immobilized AChE
[3] = target: T1, acetylcholinesterase (AChE); experiment: electrochemical (DPV/EIS/CV) inhibition of immobilized AChE, acetylthiocholine substrate

T1 sequence (O42275 24-633): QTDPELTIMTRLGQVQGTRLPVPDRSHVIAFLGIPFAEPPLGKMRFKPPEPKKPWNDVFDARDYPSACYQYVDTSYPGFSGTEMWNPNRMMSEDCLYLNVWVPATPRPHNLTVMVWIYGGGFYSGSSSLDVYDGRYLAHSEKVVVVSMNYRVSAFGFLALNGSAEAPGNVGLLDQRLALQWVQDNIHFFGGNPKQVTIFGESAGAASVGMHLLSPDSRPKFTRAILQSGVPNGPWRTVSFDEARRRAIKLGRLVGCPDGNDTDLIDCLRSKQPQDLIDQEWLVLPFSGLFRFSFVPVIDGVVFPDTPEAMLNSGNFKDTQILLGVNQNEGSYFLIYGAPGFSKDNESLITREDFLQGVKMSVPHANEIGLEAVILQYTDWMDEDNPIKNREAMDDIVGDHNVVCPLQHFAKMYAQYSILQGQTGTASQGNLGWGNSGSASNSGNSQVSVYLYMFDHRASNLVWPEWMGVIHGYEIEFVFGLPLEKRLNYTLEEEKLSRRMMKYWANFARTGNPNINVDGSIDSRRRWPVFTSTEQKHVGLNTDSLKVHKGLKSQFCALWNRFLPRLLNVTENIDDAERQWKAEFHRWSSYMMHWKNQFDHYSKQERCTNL

Question: COP(=O)(NC(C)=O)SC (stereo not drawn) [ACE, acephate] was tested. Which “percent DPV peak current suppression” value [1] did it give?
Answer: 37% at 2 nM

Question: With CC(=O)SCC[N+](C)(C)C [ACTI, acetylthiocholine iodide] as the compound, how does the “electrochemical detection of thiocholine from hydrolysis by immobilized AChE” value [2] read?
Answer: In the absence of OP, AChE efficiently hydrolyzed ACTI into electroactive thiocholine (TCh)

Question: How did the Ki [3] turn out when CCOP(=S)(OCC)Oc1nc(Cl)c(Cl)cc1Cl [CPS, chlorpyrifos] was run?
Answer: 62 nM
